Measured values reported in patent US8076352B2, “Administration of carboline derivatives useful in the treatment of cancer and other diseases” (PTC Therapeutics, Inc., priority 2004, dated 2011).

System: hypoxia-inducible endogenous VEGF expression in HeLa cells
Experiment: Hypoxia-inducible endogenous VEGF expression, VEGF ELISA of conditioned media (dose-response EC50)
Format: cell-based
Method: The ability of the compounds of the invention to modulate hypoxia-inducible endogenous VEGF expression may be analyzed as follows. VEGF protein levels may be monitored by an ELISA assay (R&D Systems). Briefly, HeLa cells may be cultured for 24-48 hours under hypoxic conditions (1% O2, 5% CO2, balanced with nitrogen) in the presence or absence of a compound of the invention. The conditioned media may then be assayed by ELISA, and the concentration of VEGF calculated from the standard ELISA curve of each assay.
A dose-response analysis may be performed using the ELISA assay and conditions described above. The conditions for the dose-response ELISA are analogous to those described above. A series of, e.g., seven different concentrations may be analyzed. […] Dose-response curves may be plotted using percentage inhibition versus concentration of the compound, and EC50 and CC50 values may be generated for each compound with the maximal inhibition set as 100% and the minimal inhibition as 0%.

[1] = Homo sapiens, HeLa cells under hypoxic conditions
[2] = Homo sapiens, HeLa cells, hypoxic conditions (1% O2)
[3] = Homo sapiens, HeLa cells, hypoxic conditions (1% O2, 5% CO2)

SMILES	EC50 [1] [nM]	further results
Cc1cccc2c3c([nH]c12)C(c1ccccc1)NCC3 (stereo not shown) [Compound 326]	> 1000	
Fc1ccc2[nH]c3c(c2c1)CCNC3c1cccc(Cl)c1 (stereo not shown) [Compound 253]	> 1000	
CCOC(=O)N1CCc2c([nH]c3ccc(Cl)cc23)C1c1ccc(C(=O)N(C)CCc2ccccn2)cc1 (stereo not shown) [Compound 518]		EC50 [2]: 200 to 1000 nM
Clc1ccc2[nH]c3c(c2c1)CCN(c1ncccn1)C3c1ccc2c(c1)OCO2 (stereo not shown) [Compound 328]	> 1000	
CCNC(=S)N1CCc2c([nH]c3ccc(Cl)cc23)C1c1ccc(OCc2ccccc2)cc1 (stereo not shown) [Compound 206]	200 to 1000	
O=C(Oc1ccccc1Cl)N1CCc2c([nH]c3ccc(Cl)cc23)C1c1ccc(OCCCn2cncn2)cc1 (stereo not shown) [Compound 926]		EC50 [3]: < 8 nM
CCOC(=O)N1CCc2c([nH]c3ccc(Cl)cc23)C1CC(C)c1ccccc1 (stereo not shown) [Compound 508]		EC50 [2]: 40 to 200 nM
CCOC(=O)N1CCc2c([nH]c3ccc(Br)cc23)C1c1ccc(C(N)=O)cc1 (stereo not shown) [Compound 505]		EC50 [2]: 40 to 200 nM
O=C(Oc1ccccc1)N1CCc2c([nH]c3ccc(Cl)cc23)C1c1ccc(OCCCn2ccnc2)cc1 (stereo not shown) [Compound 911]		EC50 [3]: < 8 nM
COCCOCCOc1ccc(C2c3[nH]c4ccc(Cl)cc4c3CCN2C(=O)Oc2ccc(OC)cc2)cc1 (stereo not shown) [Compound 678]		EC50 [2]: 40 to 200 nM
O=C(Oc1ccccc1)N1CCc2c([nH]c3ccc(Cl)cc23)C1c1ccc(OCCCCl)cc1 (stereo not shown) [Compound 710]		EC50 [2]: < 8 nM
O=C(Oc1ccc(F)cc1)N1CCc2c([nH]c3ccc(Cl)cc23)C1c1ccc(OCCCCCCNCCCn2ccnc2)cc1 (stereo not shown) [Compound 779]		EC50 [2]: 40 to 200 nM
O=C(Oc1ccc(Cl)cc1)N1CCc2c([nH]c3ccc(Cl)cc23)C1c1ccc(OCC(O)Cn2ccnc2)cc1 (stereo not shown) [Compound 867]		EC50 [3]: 8 to 40 nM
CC(C)(C)OC(=O)N1CCCC1C(=O)Oc1ccc(C2c3[nH]c4ccc(Cl)cc4c3CCN2C(=O)OC(C)(C)C)cc1 (stereo not shown) [Compound 424]		EC50 [2]: < 8 nM
Fc1ccc(C2NCCc3c2[nH]c2ccc(Cl)cc32)cc1F (stereo not shown) [Compound 215]	200 to 1000	
O=C1NC2CSC(CCCCC(=O)OCCOc3ccc(C4c5[nH]c6ccc(Cl)cc6c5CCN4C(=O)Oc4ccc(Cl)cc4)cc3)C2N1 (stereo not shown) [Compound 544]		EC50 [2]: < 8 nM
CC(C)C1NCCc2c1[nH]c1ccc(Cl)cc21 (stereo not shown) [Compound 477]		EC50 [2]: 40 to 200 nM

SMILES	EC50 [1] [nM]	further results
CC(C)NCCCCOc1ccc(C2c3[nH]c4ccc(Cl)cc4c3CCN2C(=O)Oc2ccc(Cl)cc2)cc1 (stereo not shown) [Compound 700]		EC50 [2]: 8 to 40 nM
COc1ccc(OC(=O)N2CCc3c([nH]c4ccc(Cl)cc34)C2c2ccc(S(C)(=O)=O)cc2)cc1 (stereo not shown) [Compound 359]	40 to 200	
NCC(O)COc1ccc(C2c3[nH]c4ccc(Cl)cc4c3CCN2C(=O)Oc2ccc(Cl)cc2)cc1 (stereo not shown) [Compound 846]		EC50 [3]: 40 to 200 nM
CN(C)CCCOc1ccc(C2c3[nH]c4ccc(Cl)cc4c3CCN2C(=O)Oc2ccc(Br)cc2)cc1 (stereo not shown) [Compound 468]		EC50 (HeLa cells, hypoxic conditions (1% O2)): 8 to 40 nM
O=C(Oc1ccc(F)cc1)N1CCc2c([nH]c3ccc(Cl)cc23)C1c1ccc(OCCCN2CCOCC2)cc1 (stereo not shown) [Compound 989]		EC50 [3]: < 8 nM
CC(C)Oc1ccc(C2NCCc3c2[nH]c2ccc(Cl)cc32)cc1 (stereo not shown) [Compound 224]	200 to 1000	
COc1ccc(C2c3[nH]c4ccc(Cl)cc4c3CCN2C(=O)Nc2cccc(OC)c2)cc1 (stereo not shown) [Compound 164]	40 to 200	
O=C(Oc1ccc(F)cc1)N1CCc2c([nH]c3ccc(Cl)cc23)C1c1ccc(OCCCCNCCO)cc1 (stereo not shown) [Compound 735]		EC50 [2]: < 8 nM
O=C(Oc1ccc(Cl)cc1)N1CCc2c([nH]c3ccc(Cl)cc23)C1c1ccc(F)cc1 (stereo not shown) [Compound 444]		EC50 [2]: 8 to 40 nM
Clc1ccc2[nH]c3c(c2c1)CCNC3CCc1ccccc1 (stereo not shown) [Compound 416]		EC50 [2]: < 8 nM
CS(=O)(=O)c1ccc(C2c3[nH]c4ccc(Cl)cc4c3CCN2C(=O)N2CCOCC2)cc1 (stereo not shown) [Compound 309]	8 to 40	
CCOC(=O)N1CCc2c([nH]c3ccc(Br)cc23)C1c1ccc(C(F)(F)F)cc1 (stereo not shown) [Compound 434]		EC50 [2]: < 8 nM
Clc1ccc2[nH]c3c(c2c1)CCN(Cc1ccoc1)C3C1CCCCC1 (stereo not shown) [Compound 271]	> 1000	
COc1ccc(C2c3[nH]c4ccc(Cl)cc4c3CCN2C(=O)Nc2ccccc2OC)cc1 (stereo not shown) [Compound 142]	40 to 200	
CCOC(=O)N1CCc2c([nH]c3ccc(Br)cc23)C1c1ccc(C(=O)NCCN2CCOCC2)cc1 (stereo not shown) [Compound 488]		EC50 [2]: 40 to 200 nM
C=CCOc1ccc(C2c3[nH]c4ccc(Cl)cc4c3CCN2C(=O)OCc2ccccc2)cc1 (stereo not shown) [Compound 412]		EC50 [2]: < 8 nM
CN1CCN(CCCCOc2ccc(C3c4[nH]c5ccc(Cl)cc5c4CCN3C(=O)Oc3ccc(F)cc3)cc2)CC1 (stereo not shown) [Compound 740]		EC50 [2]: 40 to 200 nM

The next lines start with results.

EC50 [1] [nM]	SMILES	further results
< 8	CC(C)OC(=O)N1CCc2c([nH]c3ccc(Cl)cc23)C1c1ccc(Cl)cc1 (stereo not shown) [Compound 40]	
> 1000	CCOC(=O)N1CCc2c([nH]c3ccc(F)cc23)C1c1ccc(Cl)cc1 (stereo not shown) [Compound 229]	
< 8	COc1ccc(C2c3[nH]c4ccc(Cl)cc4c3CCN2C(=S)SC)cc1 (stereo not shown) [Compound 384]	
8 to 40	CC(=O)N1CCc2c([nH]c3ccc(Br)cc23)C1c1ccc(Cl)cc1 (stereo not shown) [Compound 50]	
8 to 40	CCCOC(=O)N1CCc2c([nH]c3ccc(Cl)cc23)C1c1ccc(C#N)cc1 (stereo not shown) [Compound 71]	
200 to 1000	COCC(=O)N1CCc2c([nH]c3ccc(Br)cc23)C1c1ccc(C(C)C)cc1 (stereo not shown) [Compound 187]	
< 8	Cc1ccc(C2c3[nH]c4ccc(Cl)cc4c3CCN2C(=O)OC(C)C)cc1 (stereo not shown) [Compound 36]	
40 to 200	COc1ccc(C2c3[nH]c4ccc(Cl)cc4c3CCN2C(=O)c2ccc(F)c(Cl)c2)cc1 (stereo not shown) [Compound 371]	
8 to 40	CCOC(=O)N1CCc2c([nH]c3ccc(Cl)cc23)C1c1cccc(OC)c1 (stereo not shown) [Compound 107]	
8 to 40	CCOC(=O)N1CCc2c([nH]c3ccc(Cl)cc23)C1c1cccc(Br)c1 (stereo not shown) [Compound 93]	
8 to 40	CC(C)OC(=O)N1CCc2c([nH]c3ccc(Cl)cc23)C1c1cccc(Br)c1 (stereo not shown) [Compound 95]	
200 to 1000	COCC(=O)N1CCc2c([nH]c3ccc(Br)cc23)C1c1cccc(Cl)c1 (stereo not shown) [Compound 218]	
< 8	CCOC(=O)N1CCc2c([nH]c3ccc(Cl)cc23)C1c1ccc(F)cc1F (stereo not shown) [Compound 21]	
< 8	CCOC(=O)N1CCc2c([nH]c3ccc(Br)cc23)C1c1cnc(SC)nc1 (stereo not shown) [Compound 393]	
200 to 1000	CC(=O)N1CCc2c([nH]c3ccc(Cl)cc23)C1c1ccc(OCc2ccccc2)cc1 (stereo not shown) [Compound 184]	
8 to 40	CC(=O)N1CCc2c([nH]c3ccc(Br)cc23)C1c1cccc(C(F)(F)F)c1 (stereo not shown) [Compound 80]	
8 to 40	CCOC(=O)N1CCc2c([nH]c3ccc(Cl)cc23)C1c1ccc2c(c1)OCO2 (stereo not shown) [Compound 113]	
200 to 1000	COc1ccc(C2c3[nH]c4ccc(Cl)cc4c3CCN2C(=O)OC(C)Cl)cc1 (stereo not shown) [Compound 182]	
< 8	O=C(OCCCl)N1CCc2c([nH]c3ccc(Cl)cc23)C1c1cccc(C(F)(F)F)c1 (stereo not shown) [Compound 15]	
8 to 40	CCCOC(=O)N1CCc2c([nH]c3ccc(Cl)cc23)C1c1cccc(OC)c1 (stereo not shown) [Compound 86]	
> 1000	Oc1ccc(Cl)cc1C1NCCc2c1[nH]c1ccc(Br)cc21 (stereo not shown) [Compound 381]	
200 to 1000	CCS(=O)(=O)N1CCc2c([nH]c3ccc(Cl)cc23)C1c1ccc(OC)cc1 (stereo not shown) [Compound 189]	
< 8	CCSC(=S)N1CCc2c([nH]c3ccc(Cl)cc23)C1c1ccc(OC)cc1 (stereo not shown) [Compound 383]	
8 to 40	COC(=O)N1CCc2c([nH]c3ccc(Cl)cc23)C1c1cccc(F)c1 (stereo not shown) [Compound 84]	
